From patent US12486253B2, “Therapeutics for the degradation of mutant BRAF” (C4 THERAPEUTICS, INC., priority 2021, dated 2025)
Where two headings read alike, the source gives them in different places.

Target: BRAF V600E (Homo sapiens, UniProt P15056, V600E)
Assay: HiBiT cellular BRAF^V600E degradation assay
Format: cell-based
Details: for DC50: concentration at which 50% of total cellular BRAF^V600E is degraded; for Emax: read-out: HiBit 24 h Emax
[1] = A375.10 cells, 24 h, residual protein remaining in the cell

Chain of BRAF V600E (P15056 whole entry V600E): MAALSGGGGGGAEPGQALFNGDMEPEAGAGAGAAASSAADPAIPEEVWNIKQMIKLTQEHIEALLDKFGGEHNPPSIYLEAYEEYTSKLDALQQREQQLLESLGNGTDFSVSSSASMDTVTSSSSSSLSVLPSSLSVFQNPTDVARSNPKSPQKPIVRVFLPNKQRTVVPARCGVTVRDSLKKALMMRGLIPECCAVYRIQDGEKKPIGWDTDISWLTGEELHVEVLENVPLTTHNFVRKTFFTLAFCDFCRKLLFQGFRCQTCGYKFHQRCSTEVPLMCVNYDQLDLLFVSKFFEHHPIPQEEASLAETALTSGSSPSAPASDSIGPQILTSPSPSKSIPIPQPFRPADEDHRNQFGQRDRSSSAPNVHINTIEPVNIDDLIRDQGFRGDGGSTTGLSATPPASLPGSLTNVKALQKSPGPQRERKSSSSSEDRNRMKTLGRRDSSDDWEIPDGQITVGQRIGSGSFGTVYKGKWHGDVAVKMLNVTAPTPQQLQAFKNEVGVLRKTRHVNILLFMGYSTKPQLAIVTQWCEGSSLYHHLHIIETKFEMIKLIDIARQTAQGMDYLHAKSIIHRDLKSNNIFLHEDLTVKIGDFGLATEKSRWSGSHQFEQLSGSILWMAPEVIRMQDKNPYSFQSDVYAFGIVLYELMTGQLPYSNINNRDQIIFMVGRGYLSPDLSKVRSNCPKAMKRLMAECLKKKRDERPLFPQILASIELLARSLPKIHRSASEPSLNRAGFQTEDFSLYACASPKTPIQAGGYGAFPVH

Row | DC50 (A375.10 cells, 24 h) [nM] | Emax [1] [%] | SMILES | Emax [%]
1 | 31.7 | 32.2 | Cn1nc(N2CCC(=O)NC2=O)c2cc(F)c(N3CCC(O)(CC(=O)N4CCC5(CC4)C[C@@H](n4cnc6ccc(Oc7c(F)ccc(NS(=O)(=O)C8CC8)c7C#N)cc6c4=O)CO5)CC3)cc21 [Example 192, N-[2-cyano-3-[3-[(3R)-8-[2-[1-[3-(2,4-dioxo-1,3-diazinan-1-yl)-5-fluoro-1-methylindazol-6-yl]-4-hydroxypiperidin-4-yl]acetyl]-1-oxa-8-azaspiro[4.5]decan-3-yl]-4-oxoquinazolin-6-yl]oxy-4-fluorophenyl]cyclopropanesulfonamide] | –
2 | 25.7 | 19.3 | CCN(C)S(=O)(=O)Nc1ccc(F)c(Oc2ccc3ncn([C@H]4COC5(CCN(C(=O)CC6CCN(c7ccc(NC8CCC(=O)NC8=O)cc7F)CC6)CC5)C4)c(=O)c3c2)c1C#N (stereo partly drawn) [Example 47, (3R)-3-[6-[2-cyano-3-[[ethyl(methyl)sulfamoyl]amino]-6-fluorophenoxy]-4-oxoquinazolin-3-yl]-8-[2-[1-[4-[(2,6-dioxopiperidin-3-yl)amino]-2-fluorophenyl]piperidin-4-yl]acetyl]-1-oxa-8-azaspiro[4.5]decane] | –
3 | 42.8 | 26.2 | Cn1nc(N2CCC(=O)NC2=O)c2cc(F)c(N3CCC(O)(CC(=O)N4CCC5(CC4)C[C@@H](n4cnc6ccc(Oc7c(F)ccc(NS(=O)(=O)N8CC9CC9C8)c7C#N)cc6c4=O)CO5)CC3)cc21 (stereo partly drawn) [Example 194, N-[2-cyano-3-[3-[(3R)-8-[2-[1-[3-(2,4-dioxo-1,3-diazinan-1-yl)-5-fluoro-1-methylindazol-6-yl]-4-hydroxypiperidin-4-yl]acetyl]-1-oxa-8-azaspiro[4.5]decan-3-yl]-4-oxoquinazolin-6-yl]oxy-4-fluorophenyl]-3-azabicyclo[3.1.0]hexane-3-sulfonamide] | –
4 | 27.2 | 25.2 | CCN(C)S(=O)(=O)Nc1ccc(F)c(Oc2ccc3ncn([C@H]4COC5(CCN(C(=O)CC6(O)CCN(c7ccc8c(C9CCC(=O)NC9=O)nn(C)c8c7)CC6)CC5)C4)c(=O)c3c2)c1C#N (stereo partly drawn) [Example 152, (3R)-3-[6-[2-cyano-3-[[ethyl(methyl)sulfamoyl]amino]-6-fluorophenoxy]-4-oxoquinazolin-3-yl]-8-[2-[1-[3-(2,6-dioxopiperidin-3-yl)-1-methylindazol-6-yl]-4-hydroxypiperidin-4-yl]acetyl]-1-oxa-8-azaspiro[4.5]decane] | –
5 | 31.2 | 31.1 | COC1CCN(S(=O)(=O)Nc2ccc(F)c(Oc3ccc4ncn([C@H]5COC6(CCN(C(=O)CC7(O)CCN(c8cc9c(cc8F)c(N8CCC(=O)NC8=O)nn9C)CC7)CC6)C5)c(=O)c4c3)c2C#N)C1 (stereo partly drawn) [Example 175, N-[2-cyano-3-[3-[(3R)-8-[2-[1-[3-(2,4-dioxo-1,3-diazinan-1-yl)-5-fluoro-1-methylindazol-6-yl]-4-hydroxypiperidin-4-yl]acetyl]-1-oxa-8-azaspiro[4.5]decan-3-yl]-4-oxoquinazolin-6-yl]oxy-4-fluorophenyl]-3-methoxypyrrolidine-1-sulfonamide] | –
6 | 17.2 | 10.7 | O=C1CC[C@H](Nc2ccc(C3CCN(CC(=O)N4CCN(c5ncc(-n6cnc7ccc(Oc8c(F)ccc(NS(=O)(=O)C9CCCC9)c8F)cc7c6=O)cn5)CC4)CC3)c(F)c2)C(=O)N1 [Example 138, N-[3-[3-[2-[4-[2-[4-[4-[[(3S)-2,6-dioxopiperidin-3-yl]amino]-2-fluorophenyl]piperidin-1-yl]acetyl]piperazin-1-yl]pyrimidin-5-yl]-4-oxoquinazolin-6-yl]oxy-2,4-difluorophenyl]cyclopentanesulfonamide] | –
7 | 26.6 | 21 | CCN(C)S(=O)(=O)Nc1ccc(F)c(Oc2ccc3ncn(C4CCC5(CC4)CCN(C(=O)CN4CCC(c6ccc7c(C8CCC(=O)NC8=O)nn(C)c7c6)CC4)CC5)c(=O)c3c2)c1C#N (centres unmarked) [Example 156, 9-[6-[2-cyano-3-[[ethyl(methyl)sulfamoyl]amino]-6-fluorophenoxy]-4-oxoquinazolin-3-yl]-3-[2-[4-[3-(2,6-dioxopiperidin-3-yl)-1-methylindazol-6-yl]piperidin-1-yl]acetyl]-3-azaspiro[5.5]undecane] | –
8 | 6.47 | 8.79 | CC(C)S(=O)(=O)Nc1ccc(F)c(Oc2ccc3ncn(-c4cnc(N5CCN(C(=O)CN6CCC(c7ccc(N[C@H]8CCC(=O)NC8=O)cc7F)CC6)CC5)nc4)c(=O)c3c2)c1C#N [Example 112, N-[2-cyano-3-[3-[2-[4-[2-[4-[4-[[(3S)-2,6-dioxopiperidin-3-yl]amino]-2-fluorophenyl]piperidin-1-yl]acetyl]piperazin-1-yl]pyrimidin-5-yl]-4-oxoquinazolin-6-yl]oxy-4-fluorophenyl]propane-2-sulfonamide] | –
9 | 30.9 | 21.2 | CCN(C)S(=O)(=O)Nc1ccc(F)c(Oc2ccc3ncn([C@H]4COC5(CCN(C(=O)C[C@H]6CC[C@@H](c7ccc8c(C9CCC(=O)NC9=O)nn(C)c8c7)CC6)CC5)C4)c(=O)c3c2)c1C#N (single isomer, unassigned) [Example 170] | –
10 | 31.5 | 11.6 | CCN(C)S(=O)(=O)Nc1ccc(F)c(Oc2ccc3ncn([C@@H]4COC5(CCN(C(=O)CN6CCC(c7ccc(NC8CCC(=O)NC8=O)cc7F)CC6)CC5)C4)c(=O)c3c2Br)c1C#N (stereo partly drawn) [Example 74, (3S)-3-[5-bromo-6-[2-cyano-3-[[ethyl(methyl)sulfamoyl]amino]-6-fluorophenoxy]-4-oxoquinazolin-3-yl]-8-[2-[4-[4-[(2,6-dioxopiperidin-3-yl)amino]-2-fluorophenyl]piperidin-1-yl]acetyl]-1-oxa-8-azaspiro[4.5]decane] | –
11 | 19.3 | 21.7 | CCN(C)S(=O)(=O)Nc1ccc(F)c(Oc2ccc3ncn(C4CC5(CCN(C(=O)CC6(O)CCN(c7ccc(NC8CCC(=O)NC8=O)cc7F)CC6)CC5)C4)c(=O)c3c2)c1C#N (centres unmarked) [Example 23, 6-[2-cyano-3-[[ethyl(methyl)sulfamoyl]amino]-6-fluorophenoxy]-3-[7-[2-[1-[4-[(2,6-dioxopiperidin-3-yl)amino]-2-fluorophenyl]-4-hydroxypiperidin-4-yl]acetyl]-7-azaspiro [3.5]nonan-2-yl]-4-oxoquinazoline] | –
12 | 20 | 24.4 | CCN(C)S(=O)(=O)Nc1ccc(F)c(Oc2ccc3ncc(C4COC5(CCN(C(=O)CC6(O)CCN(c7cc8c(cc7F)c(N7CCC(=O)NC7=O)nn8C)CC6)CC5)C4)nc3c2)c1C#N (single isomer, unassigned) [Example 222] | –
13 | 20.7 | 6.45 | CCN(C)S(=O)(=O)Nc1ccc(F)c(Nc2ccc3ncn([C@H]4COC5(CCN(C(=O)CN6CCC(c7ccc(NC8CCC(=O)NC8=O)cc7F)CC6)CC5)C4)c(=O)c3c2)c1C#N (single isomer, unassigned) [Example 82] | –
14 | 16.1 | 12.8 | N#Cc1c(NS(=O)(=O)C2CC2)ccc(F)c1Oc1ccc2ncn(-c3cnc(N4CCN(C(=O)CN5CCC(c6ccc(N[C@@H]7CCC(=O)NC7=O)cc6F)CC5)CC4)nc3)c(=O)c2c1 [Example 115, N-[2-cyano-3-[3-[2-[4-[2-[4-[4-[[(3R)-2,6-dioxopiperidin-3-yl]amino]-2-fluorophenyl]piperidin-1-yl]acetyl]piperazin-1-yl]pyrimidin-5-yl]-4-oxoquinazolin-6-yl]oxy-4-fluorophenyl]cyclopropanesulfonamide] | –
15 | 43.2 | 8.31 | CCN(C)S(=O)(=O)Nc1ccc(F)c(Oc2ccc3ncn([C@H]4COC5(CCN(C(=O)CN6CCC(c7cc(OC)c(NC8CCC(=O)NC8=O)cc7F)CC6)CC5)C4)c(=O)c3c2)c1C#N (stereo partly drawn) [Example 75, (3R)-3-[6-[2-cyano-3-[[ethyl(methyl)sulfamoyl]amino]-6-fluorophenoxy]-4-oxoquinazolin-3-yl]-8-[2-[4-[4-[(2,6-dioxopiperidin-3-yl)amino]-2-fluoro-5-methoxyphenyl]piperidin-1-yl]acetyl]-1-oxa-8-azaspiro[4.5]decane] | –
16 | 18.4 | 8.7 | CCN(C)S(=O)(=O)Nc1ccc(F)c(Oc2ccc3ncn(C4COC5(CCN(C(=O)CN6CCC(c7ccc8c(N9CCC(=O)NC9=O)nn(C)c8c7)CC6)CC5)C4)c(=O)c3c2)c1C#N (centres unmarked) [Example 148, 3-[6-[2-cyano-3-[[ethyl(methyl)sulfamoyl]amino]-6-fluorophenoxy]-4-oxoquinazolin-3-yl]-8-[2-[4-[3-(2,4-dioxo-1,3-diazinan-1-yl)-1-methylindazol-6-yl]piperidin-1-yl]acetyl]-1-oxa-8-azaspiro[4.5]decane] | –

Row | SMILES | DC50 (A375.10 cells, 24 h) [nM] | Emax [1] [%] | Emax [%]
17 | CCN(C)S(=O)(=O)Nc1ccc(F)c(Oc2ccc3ncn([C@H]4COC5(CCN(C(=O)CC6CCN(c7cc8c(cc7F)c(N7CCC(=O)NC7=O)nn8C)CC6)CC5)C4)c(=O)c3c2)c1C#N [Example 180, (3R)-3-[6-[2-cyano-3-[[ethyl(methyl)sulfamoyl]amino]-6-fluorophenoxy]-4-oxoquinazolin-3-yl]-8-[2-[1-[3-(2,4-dioxo-1,3-diazinan-1-yl)-5-fluoro-1-methylindazol-6-yl]piperidin-4-yl]acetyl]-1-oxa-8-azaspiro[4.5]decane] | 9.62 | – | 20.6
18 | N#Cc1c(NS(=O)(=O)C2CCCCC2)ccc(F)c1Oc1ccc2ncn(-c3cnc(N4CCN(C(=O)CN5CCC(c6ccc(N[C@H]7CCC(=O)NC7=O)cc6F)CC5)CC4)nc3)c(=O)c2c1 [Example 105, N-[2-cyano-3-[3-[2-[4-[2-[4-[4-[[(3S)-2,6-dioxopiperidin-3-yl]amino]-2-fluorophenyl]piperidin-1-yl]acetyl]piperazin-1-yl]pyrimidin-5-yl]-4-oxoquinazolin-6-yl]oxy-4-fluorophenyl]cyclohexanesulfonamide] | 17.7 | – | 11.8
19 | N#Cc1c(NS(=O)(=O)N2CCCC2)ccc(F)c1Oc1ccc2ncn(-c3cnc(N4CCN(C(=O)CN5CCC(c6ccc(N[C@H]7CCC(=O)NC7=O)cc6F)CC5)CC4)nc3)c(=O)c2c1 [Example 107, N-[2-cyano-3-[3-[2-[4-[2-[4-[4-[[(3S)-2,6-dioxopiperidin-3-yl]amino]-2-fluorophenyl]piperidin-1-yl]acetyl]piperazin-1-yl]pyrimidin-5-yl]-4-oxoquinazolin-6-yl]oxy-4-fluorophenyl]pyrrolidine-1-sulfonamide] | 12.9 | – | 9.8
